Patent publication US20260374766A1, “METHODS FOR TREATING CANCER” (Antares Therapeutics, Inc., priority 2022, published 2026)
Where two headings read alike, the source gives them in different places.

Legend:
[1] = molecular target: T1, p53 Y220C mutant protein (amino acid residues 94-293) (Homo sapiens, UniProt P04637, Y220C); assay: Thermal Shift Assay (TSA), dTM; type: binding; conditions: for ΔTm at 100 µM: 100 uM compound, read-out: TSA P53 Y220C dTM (100 uM); for ΔTm at 10 µM: 10 uM compound
T1 construct: p53 Y220C mutant protein (amino acid residues 94-293)
How it was run: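 First, the mutant DNA-binding domain (5 μM) was preincubated 3 hours at 20 °C with compound at 10 μM or 100 μM. Next, the sample was heated from 30 °C to 50 °C at 0.03 °C/second in the presence of Sypro Orange. Finally, TM was obtained from a two-state Boltzmann fit.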

H1299 p53 Y220C = assay: Cell Proliferation Assay (CellTiter-Glo, CTG), H1299 p53 Y220C (NClH1299-inducible p53 Y220C); type: cell-based; conditions: Homo sapiens, NCI-H1299, 120 h, CellTiter-Glo, 5 days
How it was run: (§1)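 NClH1299 lines stably transduced with Tet-inducible p53 Y220C or R273H, plus NUGC3, were treated with compound for 5 days at 250-500 cells/well. IC50 derived from CellTiter-Glo luminescent signal after 10 min room-temperature incubation.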

[2] = molecular target: T1, p53 Y220C mutant protein (amino acid residues 94-293); assay: Surface Plasmon Resonance (SPR) assay, Kd_kinetic; type: binding; conditions: SPR, p53 Y220C, read-out: SPR P53 Y220C KD kinetic
How it was run: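 Biacore 8K SPR; 16 or 20 °C; Tris 50 mM pH 7.5, NaCl 100 mM, DTT 1 mM, Brij35 0.01%, Tween-20 0.05%, DMSO 1%. Kd_kinetic by 1:1 fit.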

p53 Y220C = p53 Y220C (Homo sapiens, UniProt P04637, Y220C); assay: Luciferase Reporter Assay (Luc), p53 response element, NClH1299 cells with inducible p53 Y220C; type: cell-based; conditions: luciferase reporter, NClH1299 inducible p53 Y220C, 6 hour; for AC50: read-out: Luc P53 Y220C AC50
How it was run: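 Luciferase activity is measured directly after One-Glo addition and a 5-minute room-temperature shake. Before that, cells plated at 5,000 per well receive doxycycline at 0.5 ug/mL for 24 hours, followed by compound for 6 hours.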

H1299 p53 R273H = assay: Cell Proliferation Assay (CellTiter-Glo, CTG), H1299 p53 R273H (NClH1299-inducible p53 R273H); type: cell-based; conditions: Homo sapiens, NCI-H1299, 120 h, CellTiter-Glo, 5 days
How it was run: as §1

NUGC3 p53 Y220C = assay: Cell Proliferation Assay (CellTiter-Glo, CTG), NUGC3 p53 Y220C; type: cell-based; conditions: Homo sapiens, NUGC-3, 120 h, CellTiter-Glo, 5 days
How it was run: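 Tet-One inducible p53 Y220C or R273H constructs were stably introduced into NCI-H1299 by lentiviral transduction; NUGC3 was used as is. Cells (250-500 per well) were exposed to compound for 5 days, then CellTiter-Glo was added for 10 min at room temperature and IC50 was calculated from luminescence.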

[3] = 10 uM tool compound as positive control
[4] = thermal shift, read-out: TSA P53 Y220C dTM (10 uM)
[5] = p53 Y220C, read-out: TSA P53 Y220C dTM
[6] = NClH1299-inducible p53 Y220C cells
[7] = NClH1299-inducible p53 R273H cells

Structure (SMILES) | ΔTm at 100 µM ([1]; thermal shift) [°C] | IC50 (H1299 p53 Y220C; H1299 p53 Y220C) [nM] | Kd ([2]; kinetic KD) [nM] | Emax (p53 Y220C; [3]) [%] | AC50 (p53 Y220C) [nM] | IC50 (H1299 p53 R273H; H1299 p53 R273H) [nM] | IC50 (NUGC3 p53 Y220C; NUGC3 p53 Y220C) [nM] | ΔTm at 10 µM [1, 4] [°C] | ΔTm at 10 µM [1, 5] [°C] | IC50 (H1299 p53 Y220C; [6]) [nM] | Kd [2] [nM] | AC50 (p53 Y220C; AC50) [nM] | Emax (p53 Y220C; Emax) [%] | IC50 (H1299 p53 R273H; [7]) [nM] | IC50 (NUGC3 p53 Y220C; NUGC3 cells) [nM]
CCOc1c(C#CCNc2ccc(C(=O)NC)cc2OC)nc2c(N[C@@H]3CCN(C)C[C@@H]3F)cccn12 [Example 17, 4-{[3-(3-ethoxy-8-{[(3S,4R)-3-fluoro-1-methylpiperidin-4-yl]amino}imidazo[1,2-a]pyridin-2-yl)prop-2-yn-1-yl]amino}-3-methoxy-N-methylbenzamide] | 1 to 5 | > 3000 | 100 to 1000 | < 70 | > 3000 | ≥ 10000 | > 3000 | – | – | – | – | – | – | – | –
CNC(=O)c1ccc(NCC#Cc2nc3c(N[C@H]4CCn5nccc5C4)cccn3c2SC(F)(F)F)c(OC)c1 [Example 178] | 5 to 10 | 750 to 1500 | 10 to 100 | < 70 | 1500 to 3000 | 5000 to 8000 | 750 to 1500 | 5 to 10 | – | – | – | – | – | – | –
COc1ccc(C(=O)NC2CC2)cc1NCC#Cc1nc2c(N[C@@H]3CCN(C)C[C@@H]3F)cccn2c1SC(F)(F)F [Example 109, N-cyclopropyl-3-{[3-(8-{[(3S,4R)-3-fluoro-1-methylpiperidin-4-yl]amino}-3-[(trifluoromethyl)sulfanyl]imidazo[1,2-a]pyridin-2-yl)prop-2-yn-1-yl]amino}-4-methoxybenzamide] | ≥ 10 | < 750 | < 10 | 80 to 90 | < 750 | 8000 to 10000 | < 750 | ≥ 10 | – | – | – | – | – | – | –
CNC(=O)c1ccc(OC)c(NCC#Cc2nn3c(N[C@@H]4CNC[C@@H]4F)cccc3c2SC(F)(F)F)c1 [Example 250] | – | – | – | – | – | – | – | – | ≥ 10 | < 750 | < 10 | < 750 | 80 to 90 | 5000 to 8000 | < 750
CNC(=O)c1cnc(OC)c(NCC#Cc2nn3c(N[C@@H]4CCNC[C@@H]4F)cccc3c2SC(F)(F)F)c1 [Example 270] | – | – | – | – | – | – | – | – | ≥ 10 | < 750 | < 10 | < 750 | 80 to 90 | < 5000 | < 750
CNC(=O)c1ccc(NCC#Cc2nc3c(N[C@@H]4CCN(C)C(=O)C4)cccn3c2SC(F)(F)F)c(OC)c1 [Example 169] | 5 to 10 | > 3000 | 10 to 100 | 70 to 80 | > 3000 | ≥ 10000 | > 3000 | 5 to 10 | – | – | – | – | – | – | –
CNC(=O)c1ccc(OC)c(NCC#Cc2cc3c(N[C@@H]4CCN(C)C[C@@H]4F)cccn3c2SC(F)(F)F)n1 [Example 345] | – | – | – | – | – | – | – | – | ≥ 10 | < 750 | < 10 | < 750 | 80 to 90 | 8000 to 10000 | < 750
CNC(=O)c1cnc(OC)c(NCC#Cc2nn3c(N[C@@H]4CCN(C)C[C@@H]4F)cccc3c2SC(F)(F)F)c1 [Example 260] | – | – | – | – | – | – | – | – | ≥ 10 | < 750 | < 10 | < 750 | 80 to 90 | 8000 to 10000 | < 750
CNC(=O)c1ccc(C(=O)NC)c(NCC#Cc2cc3c(N[C@@H]4CCN(C)C[C@@H]4F)nccn3c2SC(F)(F)F)c1 [Example 348] | – | – | – | – | – | – | – | – | ≥ 10 | < 750 | < 10 | < 750 | > 90 | ≥ 10000 | < 750
CCS(=O)(=O)c1ccc(NCC#Cc2nc3c(N[C@@H]4CCN(C)C[C@@H]4F)cccn3c2SC(F)(F)F)c(OC)c1 [Example 79, (3S,4R)—N-[2-(3-{[4-(ethanesulfonyl)-2-methoxyphenyl]amino}prop-1-yn-1-yl)-3-[(trifluoromethyl)sulfanyl]imidazo [1,2-a]pyridin-8-yl]-3-fluoro-1-methylpiperidin-4-amine] | ≥ 10 | < 750 | < 10 | 80 to 90 | < 750 | 8000 to 10000 | < 750 | – | – | – | – | – | – | – | –
